Test results published in patent publication US10556865B2, “Synergistic herbicidal composition containing certain pyridine or pyrimidine carboxylic acids and certain cereal and rice herbicides” (Dow AgroSciences, LLC, priority 2007, dated 2020).
Read-outs that look alike come from different tables or passages of the source.

Key:
Assay type in all cases: in vivo
[1] = tested on: scented mayweed (Matricaria chamomila L; MATCH); assay: Postemergence herbicidal activity of mixtures in cereal crops (greenhouse, visual injury); conditions: Matricaria, post-emergence, read-out: MATCH Ob
Summary of the method: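 Weeds grown in greenhouse (~14 h photoperiod, ~18/17 °C day/night) to second–third true leaf stage, sprayed postemergence with compound and second cereal herbicide alone or combined; solvent-blank controls. Injury scored visually after 20-22 days, 0–100% (complete kill); expected mixture activity = A+B−(A×B/100).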

Cyperus iria L. (CYPIR) = assay: Postemergence herbicidal mixtures for weed control in direct seeded rice (greenhouse, visual % injury); conditions: for % Injury Ob: CYPIR
[2] = tested on: Fimbristylis miliacea (L.) VAHL (FIMMI); assay: as above; conditions: FIMMI
Scirpus species (SCPSS) = assay: Herbicidal mixtures for weed control in transplanted paddy rice (in-water application, visual % injury); conditions: SCPJU
Summary of the method: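 Weeds sown in flooded puddled mineral soil (pH ~7.3–7.8, ~1.0% organic matter) and treated at second–third true leaf stage by injecting acetone/2.5% Agri-dex stock into the paddy water. A, C and D dosed as acid equivalent, partner herbicides as active ingredient. Injury scored visually after 3 weeks in greenhouse, 0–100% versus untreated plants.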

For `COC(=O)c1nc(-c2ccc(Cl)c(OC)c2F)nc(N)c1Cl` [Compound B Methyl, 6-amino-5-chloro-2-(4-chloro-2-fluoro-3-methoxyphenyl)pyrimidine-4-carboxylic acid methyl ester], the pest or weed control at 8.75 g/ha ([1]; 8.75 g/ha alone) was 10%, the pest or weed control at 17.5 g/ha ([1]; 17.5 g/ha alone) was 10% and the pest or weed control at 35 g/ha ([1]; 35 g/ha alone) was 40%. For the same molecule, the pest or weed control at 70 g/ha ([1]; 70 g/ha alone) was 45%.

`O=C(O)c1c(Cl)ccc2cc(Cl)cnc12` [Quinclorac] was tested, and the “% Injury Ob” value (Cyperus iria L. (CYPIR); 140 g/ha alone) was 0% and the “% Injury Ob” value ([2]; 140 g/ha alone) was 0%.

With `COc1c(Cl)ccc(-c2cc(N)c(Cl)c(C(=O)O)n2)c1F` [Compound A TEA, 4-amino-3-chloro-6-(4-chloro-2-fluoro-3-methoxyphenyl)pyridine-2-carboxylic acid] the “% Injury Ob” value (Scirpus species (SCPSS); 17.5 g/ha alone) was 60%, the “% Injury Ob” value (Scirpus species (SCPSS); 35 g/ha alone) was 85% and the “% Injury Ob” value (Scirpus species (SCPSS); 70 g/ha alone) was 95%. For the same molecule, the pest or weed control at 8.75 g/ha ([1]; 8.75 g/ha alone) was 71%, the pest or weed control at 8.75 g/ha ([1]; 8.75 g/ha) was 71% and the pest or weed control at 17.5 g/ha ([1]; 17.5 g/ha alone) was 76%. It also gave a pest or weed control at 17.5 g/ha ([1]; 17.5 g/ha) of 76%, a pest or weed control at 35 g/ha ([1]; 35 g/ha alone) of 84% and a pest or weed control at 70 g/ha ([1]; 70 g/ha alone) of 94%. The pest or weed control at 140 g/ha ([1]; 140 g/ha) was 65%.

`COC(=O)c1nc(-c2ccc(Cl)c(OC)c2F)cc(N)c1Cl` [Compound A Methyl, 4-amino-3-chloro-6-(4-chloro-2-fluoro-3-methoxyphenyl)pyridine-2-carboxylic acid methyl ester] was tested, and the “% Injury Ob” value (Cyperus iria L. (CYPIR); 35 g/ha alone) was 50%, the “% Injury CYPIR Ob” value (Cyperus iria L. (CYPIR); alone 4.38 g/ha) was 70% and the “% Injury CYPIR Ob” value (Cyperus iria L. (CYPIR); alone 35 g/ha) was 50%. The “% Injury Ob” value ([2]; 4.38 g/ha alone) was 20%, the “% Injury Ob” value ([2]; 8.75 g/ha alone) was 40% and the “% Injury Ob” value (Scirpus species (SCPSS); 17.5 g/ha alone) was 90%. It also gave a pest or weed control at 17.5 g/ha ([1]; 17.5 g/ha) of 15%, a pest or weed control at 35 g/ha ([1]; 35 g/ha) of 68% and a pest or weed control at 70 g/ha ([1]; 70 g/ha) of 65%.
